According to patent publication EP4755384A1, “PHARMACEUTICAL COMPOSITION CONTAINING ANDROGEN RECEPTOR INHIBITOR/ANTAGONIST, METHOD AND USE” (Suzhou Kintor Pharmaceuticals, Inc., priority 2023, dated 2025):

How the values were obtained:
mice [1] = assay: In-vivo efficacy experiment 1: hair scoring in depilated mice given DHT; design: key: 0 = no skin darkening, 5 = complete hair growth; settings: DHT 30 mg/kg subcutaneous QD
Experimental: 100 mice were deeply anesthetized. First, the hair on the back of the mice was shaved off with an animal hair clipper. Then, depilatory cream (Veet, https://item.jd.com/6291245.html) was evenly applied to the skin surface of the mice. After leaving it for 7-10 minutes, the remaining hair was gently scraped off against the hair growth direction with a depilatory spatula. Finally, the residual depilatory cream on the skin surface was thoroughly washed off with a wet wipe to avoid skin burns in the mice.
The main observation indicators of this experiment are shown in FIG. 12 (literature on hair scoring: Biomolecules & Therapeutics, 17(3), 241-248 (2009)), which is described as follows: (Score 0: No darkening of skin colour observed in any areas; Score 1: Darkening of skin area from greyish to black; Score 2: Visible short hairs; Score 3: Sparse hairs; Score 4: Dense hairs; Score 5: Complete hair growth). After depilation, the mice were photographed and scored three times a week until the end of the experiment.
100 mice were deeply anesthetized. First, the hair on the back of the mice was shaved off with an animal hair clipper. Then, depilatory cream was evenly applied to the skin surface of the mice. After leaving it for 7-10 minutes, the remaining hair was gently scraped off against the hair growth direction with a depilatory spatula. Finally, the residual depilatory cream on the skin surface was thoroughly washed off with a wet wipe to avoid skin burns in the mice.
DHT and test substances (compound of formula I and minoxidil) were administered starting on the day following depilation, which was recorded as Day 1 (the day of depilation was recorded as Day 0). 64 mice in good condition were randomly selected and assigned to each group. Table 1 Experimental grouping
According to the grouping in Table 1, and the corresponding administration dose, test substance concentration and administration volume, […] above experimental design and methods. For groups G7 and G8, which received a combined administration of the compound of formula I and minoxidil, one drug was administered first followed by the other, with the administration interval between the two drugs not exceeding 1 minute.
(§1) Starting from the first day of administration, body weight was weighed and recorded twice a week, and hair regrowth (anagen) scoring and photography were performed […], until the end of the experiment. Scoring was conducted according to the criteria described in the experimental design.

mice [2] = assay: In-vivo efficacy experiment 2: hair scoring in depilated mice given DHT; design: key: 0 = no skin darkening, 5 = complete hair growth; settings: minoxidil 5% (50 mg/mL) 150 µL topical QD, DHT 30 mg/kg subcutaneous QD
Experimental: 120 mice were deeply anesthetized. First, the hair on the back of the mice was shaved off with an animal hair clipper. Then, depilatory cream (Veet, https://item.jd.com/6291245.html) was evenly applied to the skin surface of the mice. After leaving it for 7-10 minutes, the remaining hair was gently scraped off against the hair growth direction with a depilatory spatula. Finally, the residual depilatory cream on the skin surface was thoroughly washed off with a wet wipe to avoid skin burns in the mice.
DHT and test substances (compound of formula I and minoxidil) were administered starting on the day following depilation, which was recorded as Day 1 (the day of depilation was recorded as Day 0). 86 mice in good condition were randomly selected and assigned to each group.
The main observation indicators of this experiment are shown in FIG. 12 (literature on hair scoring: Biomolecules & Therapeutics, 17(3), 241-248 (2009)), which is described as follows: (Score 0: No darkening of skin colour observed in any areas; Score 1: Darkening of skin area from greyish to black; Score 2: Visible short hairs; Score 3: Sparse hairs; Score 4: Dense hairs; Score 5: Complete hair growth). After depilation, the mice were photographed and scored three times a week until the end of the experiment. Table 4 Experimental grouping
According to the grouping in Table 4, and the corresponding administration dose, test substance concentration and administration volume, […] above experimental design and methods. For groups G6, G7 and G8, which received a combined administration of the compound of formula I and minoxidil, one drug was administered first followed by the other, with the administration interval between the two drugs not exceeding 1 minute.
as §1

Structure (SMILES): Nc1cc(N2CCCCC2)nc(N)[n+]1[O-] [minoxidil, Minoxidil]
- Hair scoring in mice, Score (mice [1]; Day 7, minoxidil 2% (20 mg/mL) 150 µL topical QD): 0.00
- Hair scoring in mice, Score (mice [1]; Day 7, minoxidil 5% (50 mg/mL) 150 µL topical QD): 0.13
- Hair scoring in mice, Score (mice [1]; Day 9, minoxidil 2% (20 mg/mL) 150 µL topical QD): 0.29
- Hair scoring in mice, Score (mice [1]; Day 9, minoxidil 5% (50 mg/mL) 150 µL topical QD): 0.25
- Hair scoring in mice, Score (mice [1]; Day 11, minoxidil 2% (20 mg/mL) 150 µL topical QD): 0.57
- Hair scoring in mice, Score (mice [1]; Day 11, minoxidil 5% (50 mg/mL) 150 µL topical QD): 0.38
- Hair scoring in mice, Score (mice [1]; Day 14, minoxidil 2% (20 mg/mL) 150 µL topical QD): 0.86
- Hair scoring in mice, Score (mice [1]; Day 14, minoxidil 5% (50 mg/mL) 150 µL topical QD): 1.00
- Hair scoring in mice, Score (mice [1]; Day 16, minoxidil 2% (20 mg/mL) 150 µL topical QD): 1.14
- Hair scoring in mice, Score (mice [1]; Day 16, minoxidil 5% (50 mg/mL) 150 µL topical QD): 1.75
- Hair scoring in mice, Score (mice [1]; Day 18, minoxidil 2% (20 mg/mL) 150 µL topical QD): 1.86
- Hair scoring in mice, Score (mice [1]; Day 18, minoxidil 5% (50 mg/mL) 150 µL topical QD): 2.63
- Hair scoring in mice, Score (mice [1]; Day 21, minoxidil 2% (20 mg/mL) 150 µL topical QD): 2.29
- Hair scoring in mice, Score (mice [1]; Day 21, minoxidil 5% (50 mg/mL) 150 µL topical QD): 3.13
- Hair scoring in mice, Score (mice [1]; Day 23, minoxidil 2% (20 mg/mL) 150 µL topical QD): 2.71
- Hair scoring in mice, Score (mice [1]; Day 23, minoxidil 5% (50 mg/mL) 150 µL topical QD): 3.50
- Hair scoring in mice (mice [2]; Day 8): 0.00
- Hair scoring in mice (mice [2]; Day 11): 0.25
- Hair scoring in mice (mice [2]; Day 15): 1.25
- Hair scoring in mice (mice [2]; Day 17): 1.88
- Hair scoring in mice (mice [2]; Day 19): 2.63
- Hair scoring in mice (mice [2]; Day 21): 2.75
